Experimental data: patent US9393250B2, “Phthalocyanine compounds useful as RecA inhibitors and methods of using same” (University of Saskatchewan, priority 2012, dated 2016)
Counter-ions that a name gives are not always drawn.

Experiments:
[1] = system: E. coli strain ATCC25922; assay: Antibiotic sensitivity assay (CFUs/ml), E. coli; type: cell-based, Escherichia coli; details: for decrease in CFUs relative to ciprofloxacin treatment alone: compound 25 μM + ciprofloxacin 40 nM
Experimental: (§1) Bacterial cultures were diluted to 10^5 cells/mL in LB broth (ATCC25922) or MH broth (ATCC27853, ATCC29212, ATCC29213). Antibiotics and/or phthalocyanines were added at indicated concentrations and the culture was incubated at 37° C. Samples were collected at 0, 24, 48, and 72 hours and plated on LB agar (ATCC25922) or tryptic soy blood agar (ATCC27853, ATCC29212, ATCC29213) to determine CFUs/ml.
The ability of 4,4-Fe-PcTs and 3,4-Cu-PcTs to potentiate the activity of ciprofloxacin (abbreviated “CFX”) was tested. Ciprofloxacin inhibits DNA gyrase in bacteria, causing accumulation of double-stranded DNA breaks (DSBs) and inducing the SOS response. The inventors characterized the ability of 4,4-Fe-PcTs and 3,4-Cu-PcTs to potentiate the activity of ciprofloxacin in the pathogenic E. coli strain ATCC25922, which was used previously by Cirz et al. to evaluate the role of SOS response proteins in antibiotic resistance.

[2] = system: SOS response (E. coli strain SS996); assay: SOS induction, GFP regulated by the sulA SOS promoter, flow cytometry; type: cell-based, Escherichia coli; details: KAN 43 μM, CAM 46 μM, TET 21 μM, SPECT 808 μM; three hours
Experimental: To confirm that the bactericidal antibiotic potentiating activity of 4,4-Fe-PcTs was correlated with reduced SOS induction, SOS induction in the E. coli strain SS996 was monitored. This strain contains a green fluorescent protein (GFP) regulated by the sulA SOS promoter.
SS996 cultures were grown to an optical density at 600 nm (OD600) of 0.3. For cultures treated with 4,4-Fe-PcTs, the 4,4-Fe-PcTs was added to give a concentration of 25 μM and the culture was incubated for three hours at 37° C. Antibiotics were then added to yield concentrations of 2.5 μM (CFX), 40 μM (AMP), 43 μM (KAN), 21 μM (TET), 46 μM (CAM), or 808 μM (SPECT). Samples (˜10^6 cells) were taken immediately before the addition of antibiotics (time zero) and every hour for three hours. Samples were washed once in PBS, and resuspended in PBS prior to analysis by flow cytometry. GFP expression was monitored using flow cytometer (Beckman Coulter, Inc.) with a 488 nm argon laser and a 515-545 nm emission. Flow cytometry data were analyzed using Flowjo (Tree Star, Inc.).

[3] = target: EcRecA / EcLexA (Escherichia coli, UniProt P0A7G6); details: in presence of ATPγS
EcRecA / EcLexA, sequence (P0A7G6 whole entry): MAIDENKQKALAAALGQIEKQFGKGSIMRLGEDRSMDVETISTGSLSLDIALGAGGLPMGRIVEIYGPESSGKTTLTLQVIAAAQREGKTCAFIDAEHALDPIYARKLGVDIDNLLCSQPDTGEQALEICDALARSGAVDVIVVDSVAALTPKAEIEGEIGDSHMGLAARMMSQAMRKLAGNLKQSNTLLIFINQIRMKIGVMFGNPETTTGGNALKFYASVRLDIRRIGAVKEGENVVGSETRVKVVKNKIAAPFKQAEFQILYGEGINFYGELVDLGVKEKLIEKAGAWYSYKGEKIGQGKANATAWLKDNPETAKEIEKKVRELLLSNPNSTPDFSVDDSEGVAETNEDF
Experimental: The LexA cleavage reaction (10 μl) contained 1 μM poly-(dT)45, 2 μM EcRecA, 10 μM EcLexA, 0.1 mM ATP-γ-S, 20 mM MgAc2, 50 mM Hepes-Tris at pH 7.6 and indicated concentrations of 4,4-Fe-PcTs or 3,4-Cu-PcTs. The reaction was incubated for 120 minutes at 21° C. and stopped by the addition of 5 μl of loading buffer (30% glycerol, 10% SDS, 0.2 M Tris-HCl at pH 6.8, 0.1% v/v 2-mercaptoethanol and 0.1% w/v bromophenol blue). The products were resolved using a 13% SDS-polyacrylamide gel. The proteins were stained with Coomassie Blue-R250.

[4] = target: T1, RecA (Escherichia coli, UniProt P0A7G6); details: 3,4-Cu-PcTs 3.75 μM; RecA 3.5 μM; AMPPNP
Target sequence in this assay (P0A7G6 2-353): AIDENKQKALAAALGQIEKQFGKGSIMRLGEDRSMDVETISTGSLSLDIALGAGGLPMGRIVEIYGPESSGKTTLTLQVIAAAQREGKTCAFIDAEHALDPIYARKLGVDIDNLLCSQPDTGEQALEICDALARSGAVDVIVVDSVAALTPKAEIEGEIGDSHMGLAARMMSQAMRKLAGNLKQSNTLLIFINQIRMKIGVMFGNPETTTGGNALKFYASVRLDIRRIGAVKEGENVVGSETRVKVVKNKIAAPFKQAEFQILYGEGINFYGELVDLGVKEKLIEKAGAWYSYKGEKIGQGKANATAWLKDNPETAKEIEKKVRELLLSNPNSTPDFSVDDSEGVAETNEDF
Experimental: RecA-dsDNA-AMPPNP complexes formed by incubating RecA (3.5 μM), calf thymus dsDNA (Sigma) at a 40 dsDNA:1 RecA ratio (w/w), AMP-PNP (adenosine 5′-(β,γ-imido)triphosphate) (Sigma) (1.3 mM), MgAc2 (Sigma) (2 mM), triethanolamine-HCl (Fisher) buffer (25 mM, pH 7.2) with or without 3,4-Cu-PcTs (3.75 μM) at 37° C. for 10 minutes. Samples were applied to carbon-coated grids and stained with 2% uranyl acetate (w/v). Images were recorded on film with a Tecnai 12 electron microscope operating at 80 keV with a nominal magnification of 30,000×. Negatives were scanned with a Nikon Coolscan 8000 densitometer at a raster of 4.2 Å/pixel.

[5] = target: T2, EcRecA (Escherichia coli, UniProt P0A7G6); details: gel shift; 0, 10, 100 μM
T2 sequence (P0A7G6 whole entry): as the sequence (P0A7G6 whole entry) above
Experimental: EcRecA (4 μM), a 1.0-kb double-stranded DNA (dsDNA) PCR product (12 μM in base pairs), and indicated concentrations of 4,4-Fe-PcTs or 3,4-Cu-PcTs were incubated in binding buffer (5 mM MgAc2, 50 mM Tris-Hepes at pH 7.6) for 10 minutes at 37° C. EcRecA bound (slower migrating) and unbound dsDNA were resolved using a 1.0% agarose gel. The gel was stained with ethidium bromide and the fluorescence emission in the gel was recorded using a Kodak GelLogic 200 system.

[6] = target: T1, RecA
Experimental: RecA (5 μM) and 3,4-Cu-PcTs (50 μM) were incubated in 0.15 M NaCl and 0.05 M Tris-HCl buffer at pH 7.4. The protein complexes were resolved by loading 2 ml of RecA/3,4-Cu-PcTs on a Pharmacia sephacryl S-300 column pre-equilibrated with the running buffer. The size exclusion column was calibrated with standard proteins with molecular weights of 35, 67, and 167 KD. Elution of proteins off the size exclusion column was monitored using absorbance at 280 nm.
Target sequence in this assay (P0A7G6 whole entry): as above

[7] = target: T2, EcRecA; details: gel shift; 0, 10, 100 μM; remark: listed apart in the source
[8] = target: T2, EcRecA; details: compound 10 μM; poly-(dT)36-stimulated; relative to reaction without inhibitor
Experimental: An ATPase assay [18] was used to screen a set of commercially available anionic, aromatic molecules for inhibitors of RecA ATPase activity. The release of inorganic phosphate by ATP hydrolysis was monitored using a Malachite Green phosphate assay [18]. The ssDNA-dependent ATPase reaction contained 1 μM EcRecA, 6 μM ssDNA (poly-(dT)36, concentration in nucleotides), 5 mM ATP, 50 mM Tris-Hepes buffer at pH 7.4, 10 mM MgCl2, 0.1% v/v 2-mercaptoethanol, and indicated amounts of 4,4-Fe-PcTs or 3,4-Cu-PcTs. Phosphate levels were measured by transferring 25 μl of ATPase reaction to 475 μl of malachite green phosphate assay, which contained 0.033% w/v Malachite Green, 1.3% w/v ammonium molybdate. 1.0 M HCl was used to monitor the release of inorganic phosphate by ATP hydrolysis [18]. The green complex formed between Malachite Green, molybdate, and free orthophosphate was measured by recording the absorbance at 620 nm.
Results are the average of two independent experiments where the deviation was less than 10%.

[9] = target: DltA (Bacillus cereus, UniProt Q81G39); assay: DltA control for specificity of ATPase inhibition; type: biochemical; details: DltA assayed in the presence of 3,4-Cu-PcTs
DltA, sequence (Q81G39 whole entry): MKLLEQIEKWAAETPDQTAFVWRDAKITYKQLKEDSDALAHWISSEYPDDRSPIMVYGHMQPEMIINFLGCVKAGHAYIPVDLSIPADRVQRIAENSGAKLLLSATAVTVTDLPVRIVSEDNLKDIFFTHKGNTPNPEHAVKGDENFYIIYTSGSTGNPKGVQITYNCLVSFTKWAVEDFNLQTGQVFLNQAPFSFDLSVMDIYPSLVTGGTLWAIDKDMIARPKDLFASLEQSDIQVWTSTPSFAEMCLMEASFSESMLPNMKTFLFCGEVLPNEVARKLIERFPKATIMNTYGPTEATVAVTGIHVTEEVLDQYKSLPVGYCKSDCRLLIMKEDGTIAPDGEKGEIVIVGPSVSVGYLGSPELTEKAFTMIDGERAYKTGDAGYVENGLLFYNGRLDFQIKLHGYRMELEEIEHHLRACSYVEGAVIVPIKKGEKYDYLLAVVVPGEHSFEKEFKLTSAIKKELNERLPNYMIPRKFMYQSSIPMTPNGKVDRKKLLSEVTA
From the text: DltA catalyzes the breakdown of ATP into AMP and pyrophosphate, which is further broken down by yeast pyrophosphatase into phosphate for quantification. Results are the average of two independent experiments where the deviation was less than 10%.

[10] = target: T2, EcRecA; details: in presence of ATPγS
Experimental: EcRecA (5 μM) was incubated with indicated concentrations of 4,4-Fe-PcTs or 3,4-Cu-PcTs in strand exchange buffer (2 mM ATP-γ-S(Sigma-Aldrich), 10 mM MgAc2, 100 mM KAc, 50 mM Hepes-Tris buffer at pH 7.6, 0.1% v/v 2-mercaptoethanol) for 10 minutes at 37° C. FAM43 (0.35 μM) was added and the reaction was incubated for 2 minutes. The reaction was started by the addition of 0.35 μM of the dsDNA substrate (annealing product of equimolar oligonucleotides 45A and 55A). The reaction was stopped at 30 minutes by adding EDTA to a final concentration of 20 mM and trypsin to a final concentration of 1 μg/μl. After 10 minutes, 10 μl of the reaction was mixed with 5 μl of loading buffer (30% glycerol and 0.1% bromophenol blue) and products were resolved using a 20% native acrylamide gel. The fluorescence emission in the gel was recorded using a Kodak GelLogic 200 system.

[11] = system: Pseudomonas aeruginosa ATCC27853; assay: Antibiotic sensitivity assay (CFUs/ml), P. aeruginosa; type: cell-based; details: ciprofloxacin 6.5 μM
Experimental: as §1
To confirm that the activity of 4,4-Fe-PcTs was not specific to the gram-negative ATCC25922 E. coli, the ability of 4,4-Fe-PcTs to potentiate the activity of ciprofloxacin in another gram-negative (Pseudomonas aeruginosa ATCC27853) strain and two gram-positive (Staphylococcus aureus ATCC29213 and Enterococcus faecalis ATCC29212) strains was evaluated.

[12] = system: ATCC25922 cells; assay: Neutropenic murine bacterial thigh infection model; type: in vivo, Escherichia coli; details: mice treated only with ciprofloxacin 1 mg/kg s.c.; after 72 hours of infection
Experimental: Six-eight week-old, specific-pathogen-free, female CD-1 mice (weight, 25-35 g) were rendered neutropenic by intraperitoneal injection with 150 mg/kg cylcophosphamide (Sigma) four days before infection and 100 mg/kg cyclophosphamide 24 hours before infection. LB broth cultures inoculated from fresh ATCC25922 colonies and cells were grown to the log phase (OD600 of approximately 0.3) and diluted 1:1000 in LB broth. Thigh infections were produced by injecting 50 μl (approximately 10^6 CFUs) of diluted cultures into halothane-anesthetized mice. One group of mice was administrated inteperitoneal injection of 4,4-Fe-PcTs in conjunction with the second dose of cyclophosphamide (24 hours prior infection) (4,4-Fe-PcTs (pre)+CFX). Starting two hours after infection (defined as time zero), mice were administered subcutaneous injections of either 1 mg/kg ciprofloxacin alone (CFX) or co-treatment of 1 mg/kg ciprofloxacin with interperitoneal injection of 10 mg/kg 4,4-Fe-PcTs (4,4-Fe-PcTs+CFX and 4,4-Fe-PcTs (pre)+CFX) every 24 hours for 3 days. After 48 and 72 hours, three mice from each group were sacrificed, and their thighs removed and homogenized to determine the number of viable bacterial cells for both ciprofloxacin-sensitive and ciprofloxacin-resistant ATCC25922 cells. Serial dilutions of homogenates of the infected thigh were plated on LB agar (CFX Sensitive) and LB agar plates containing ciprofloxacin (40 nM) (CFX Resistant) to count viable cells for each of the three treatment groups.

[13] = system: ATCC25922 E. coli; assay: Ciprofloxacin resistance assay and reconstruction assay (in vitro mutagenesis); type: cell-based, Escherichia coli
Experimental: An in vitro mutagenesis assay [1] was used to measure the ability of 4,4-Fe-PcTs to block the acquisition of ciprofloxacin-induced resistance in ATCC25922 E. coli. ATCC25922 cells were plated on media containing ciprofloxacin in the presence or absence of 4,4-Fe-PcTs and cultured for 10 days. Colonies that appeared early in the assay (days 1 and 2) are believed to arise from pre-existing ciprofloxacin resistance mutations [1]. Colonies that appear later in the incubation (days 3 to 8) are due to ciprofloxacin resistance mutations acquired during exposure to ciprofloxacin or pre-existing mutations with a slow growth phenotype [1].
To distinguish between these two types of mutants, a reconstruction assay that tests for the time it takes for colonies to appear in the presence of ciprofloxacin was used. Colonies that appear at least two days faster than they appeared in the original ciprofloxacin mutagenesis screen were classified as colonies that acquire resistance after exposure to ciprofloxacin [1]. Colonies that appeared in the same number of days as in the ciprofloxacin resistance assay were classified as colonies with pre-existing mutations [1].
Twenty-five independent colonies of ATCC2592 were used to inoculate 25 LB broth cultures that were incubated at 37° C. for 25 hours. Viable cell counts in these cultures were determined by plating serial dilutions onto LB agar plates. One hundred microliters from each culture (˜10^8 cells) were plated in duplicate on LB agar containing ciprofloxacin (CFX) (40 nM) or ciprofloxacin (40 nM) and 4,4-Fe-PcTs (25 μM) (CFX+4,4-Fe-PcTs). Three additional 100 μL aliquots from three cultures were also plated on the same media to determine the number of viable cells per day. At 24 hour intervals, visible colonies were counted, removed from the plate, and stored at −80° C. for later use in the reconstruction assay and sequencing. Every 24 hours, in parallel with the resistance assay, small plugs of agar between visible colonies were excised from resistance assay plates. Agar plugs were homogenized in M9 buffer. Dilutions were plated in duplicate on LB plates to determine the total number of viable cells per day. The cells were also plated on LB containing CFX (40 nM) to determine if any CFX-resistant colonies remained after excision [1].
Reconstruction assays were used to determine whether ciprofloxacin resistant colonies were due to post-exposure mutation or due to mutation prior to ciprofloxacin exposure. Ciprofloxacin resistant clones isolated from the resistance assay were grown to saturation in LB media in 96 well plates. Cultures were then replica-plated in duplicate using a 96-pin replicator on LB plates to confirm viability and LB plates containing ciprofloxacin (40 nM) to confirm ciprofloxacin resistance. Ciprofloxacin-resistant clones that were isolated in the presence 4,4-Fe-PcTs were replica plated on LB and LB containing 4,4-Fe-PcTs (25 μM) and ciprofloxacin (40 nM). Clones that were resistant before ciprofloxacin exposure were defined as clones that formed colonies on the ciprofloxacin-containing media in the same number of days in the reconstruction assay as in the original resistance assay. Clones that mutated after exposure to ciprofloxacin were defined as clones that formed colonies earlier than in the original resistance assay [1].
The rate of ciprofloxacin resistance was defined as the number of ciprofloxacin-resistant mutants per viable cell that evolve as a function of time. […]

[14] = target: T1, RecA; details: cited from earlier work
Target sequence in this assay (P0A7G6 2-353): as the sequence (P0A7G6 2-353) above

[15] = target: MvRadA (Methanococcus voltae, UniProt O73948); details: cited from earlier work
MvRadA, sequence (O73948 whole entry): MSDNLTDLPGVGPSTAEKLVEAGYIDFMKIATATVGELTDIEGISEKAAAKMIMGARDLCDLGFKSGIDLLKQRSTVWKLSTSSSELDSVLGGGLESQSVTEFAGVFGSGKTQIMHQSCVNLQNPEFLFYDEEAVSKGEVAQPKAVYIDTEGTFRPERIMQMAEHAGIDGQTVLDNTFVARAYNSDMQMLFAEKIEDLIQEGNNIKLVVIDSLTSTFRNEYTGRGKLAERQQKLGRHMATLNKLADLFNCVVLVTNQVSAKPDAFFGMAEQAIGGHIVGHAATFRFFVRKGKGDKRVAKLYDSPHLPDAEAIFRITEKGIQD

[16] = system: bacteria / ΔrecA bacterial strain; details: cited from earlier work

zinc (II) phthalocyanine tetrasulfonic acid [Zn-PcTs]
decrease in CFUs relative to ciprofloxacin treatment alone ([1]; 24 hours): ~100 fold

phthalocyanine tetrasulfonic acid [H-PcTs]
decrease in CFUs relative to ciprofloxacin treatment alone ([1]; 24 hours): ~100 fold

NC[C@H]1O[C@H](O[C@H]2[C@H](O)[C@@H](O[C@H]3O[C@H](CO)[C@@H](O)[C@H](N)[C@H]3O)[C@H](N)C[C@@H]2N)[C@H](O)[C@@H](O)[C@@H]1O [Kanamycin, kanamycin monosulfate]
induction of SOS-GFP reporter by antibiotic alone [2]: did not induce the SOS-GFP reporter

copper phthalocyanine-3,4′,4″,4′″-tetrasulfonic acid tetrasodium salt [3,4-Cu-PcTs]
inhibition of LexA cleavage [3]: inhibited
effect on RecA filament formation [4]: inhibited
inhibition of RecA dsDNA-binding activity [5]: in the micromolar range
effect on molecular weight (oligomeric state) of RecA complex ([6]; 3,4-Cu-PcTs 50 μM, RecA 5 μM): reduced the molecular weight of the RecA complex to a size consistent to the RecA ring-shaped hexamer storage complex
elution size of 3,4-Cu-PcTs/RecA complex ([6]; pre-incubation with 3,4-Cu-PcTs 50 μM, RecA alone eluted near the void volume): ~200 KD
inhibition of RecA ssDNA-binding activity [7]: in the micromolar range
inhibition of EcRecA ATPase activity [8]: high degree of inhibition
specificity of ATPase inhibition (DltA control) [9]: specific for inhibiting RecA ATPase activity
potentiation of ciprofloxacin activity ([1]; ciprofloxacin 40 nM): potentiated the activity of ciprofloxacin
colony forming units (CFUs) ([1]; co-treated with ciprofloxacin 40 nM and compound at concentrations above 25 μM): no colony forming units (CFUs) were observed
CFUs ([1]; compound 25 μM plus ciprofloxacin 40 nM, 24 hours): no CFUs were observed
inhibition of DNA strand-exchange [10]: inhibited

aluminum (III) phthalocyanine chloride tetrasulfonic acid [Al-PcTs]
decrease in CFUs relative to ciprofloxacin treatment alone ([1]; 24 hours): ~100 fold

copper phthalocyanine-tetrasulfonic acid [Cu-PcTs]
decrease in CFUs relative to ciprofloxacin treatment alone ([1]; 24 hours): ~100 fold

O=C(O)c1cn(C2CC2)c2cc(N3CCNCC3)c(F)cc2c1=O [ciprofloxacin, ciprofloxacin hydrochloride, reference compound]
sensitivity of ATCC27853 to ciprofloxacin compared with gram-positive strains [11]: less sensitive to ciprofloxacin than the two gram-positive strains
ciprofloxacin-resistant cells in thigh [12]: Approximately 50,000 cells
ciprofloxacin-resistant cells over time ([13]; cells treated with only ciprofloxacin): spike in ciprofloxacin-resistant cells at day 5
ciprofloxacin-resistant colonies caused by pre-existing mutations ([13]; ciprofloxacin-alone (40 nM)): 29%

metatungstate (W12O40^6−)
inhibition of RecA activity within E. coli cells [14]: unable to inhibit
MvRadA ATPase, DNA-binding, and DNA strand-exchange activities [15]: inhibited

nickel (II) phthalocyanine-tetrasulfonic acid [Ni-PcTs]
decrease in CFUs relative to ciprofloxacin treatment alone ([1]; 24 hours): ~100 fold

CN[C@@H]1[C@H](O)[C@H](NC)[C@H]2O[C@@]3(O)C(=O)C[C@@H](C)O[C@H]3O[C@@H]2[C@H]1O [spectinomycin, spectinomycin dihydrochloride]
induction of SOS-GFP reporter by antibiotic alone [2]: only very low levels of GFP expression

O=C(N[C@H](CO)[C@H](O)c1ccc([N+](=O)[O-])cc1)C(Cl)Cl [chloramphenicol]
induction of SOS-GFP reporter by antibiotic alone [2]: only very low levels of GFP expression

CO[C@H]1/C=C/O[C@@]2(C)Oc3c(C)c(O)c4c(O)c(cc(O)c4c3C2=O)NC(=O)/C(C)=C\C=C\[C@H](C)[C@H](O)[C@@H](C)[C@@H](O)[C@@H](C)[C@H](OC(C)=O)[C@@H]1C [Rifamycin, rifamycin]
SOS response and killing of bacteria ([16]; bacteria with RecA): activates the SOS response, but does not kill bacteria
activity in ΔrecA bacterial strain ([16]; ΔrecA bacterial strain): shows bactericidal activity
